Measured values: the NIST ThermoML archive (doi:10.1021/acs.jced.9b00313)

How the values were obtained:
[1] = xn = mol fraction of the nth substance listed; conditions: 86.5 kPa, Liquid; for viscosity: Capillary tube (Ostwald / Ubbelohde) method; for speed of sound: Frequency=3 MHz, Single path-length method; for mass density: Vibrating tube method
[2] = refractive index (Na D-line) (dimensionless); xn = mol fraction of the nth substance listed; conditions: 86.5 kPa, Liquid, Standard Abbe refractometry

C[N+](C)(C)CCO.[Cl-] [choline chloride] + NCCO
Conditions	mass density, [1] [kg/m3]	refractive index, [2]	speed of sound, [1] [m/s]	viscosity, [1] [mPa·s]
288.15 K, x1 = 0.125	1090.06	1.4905	1989.5	50.12
288.15 K, x1 = 0.167	1091.28	1.4934	2006.1	59.66
293.15 K, x1 = 0.125	1086.89	1.4884	1977.8	42.39
293.15 K, x1 = 0.167	1088.11	1.4913	1994.5	52.01
298.15 K, x1 = 0.125	1083.96	1.4862	1965.3	35.76
298.15 K, x1 = 0.167	1085.18	1.4891	1982	37.69
303.15 K, x1 = 0.125	1081	1.4844	1953	30.23
303.15 K, x1 = 0.167	1082.22	1.4873	1970.7	38.98

C[N+](C)(C)CCO.[Cl-] [choline chloride] + OCCO
Conditions	mass density, [1] [kg/m3]	refractive index, [2]	speed of sound, [1] [m/s]	viscosity, [1] [mPa·s]
288.15 K, x1 = 0.125	1113.73	1.467	1919.5	32.07
288.15 K, x1 = 0.167	1115.91	1.4732	1931.8	43.39
293.15 K, x1 = 0.125	1111.87	1.4649	1907.5	24.34
293.15 K, x1 = 0.167	1113.09	1.4711	1920.1	35.75
298.15 K, x1 = 0.125	1109.07	1.4628	1895.2	17.71
298.15 K, x1 = 0.167	1110.23	1.4687	1908.6	28.86
303.15 K, x1 = 0.125	1106.16	1.461	1883.5	12.19
303.15 K, x1 = 0.167	1107.34	1.4668	1897.1	22.72

C[N+](C)(C)CCO.[Cl-] [choline chloride] + OCCOCCO
Conditions	mass density, [1] [kg/m3]	refractive index, [2]	speed of sound, [1] [m/s]	viscosity, [1] [mPa·s]
288.15 K, x1 = 0.125	1115.24	1.4797	1752.1	110.12
288.15 K, x1 = 0.167	1117.43	1.4857	1764.7	125.8
293.15 K, x1 = 0.125	1113.38	1.4776	1740.1	102.39
293.15 K, x1 = 0.167	1114.61	1.4836	1752.3	118.16
298.15 K, x1 = 0.125	1110.59	1.4754	1728.4	95.76
298.15 K, x1 = 0.167	1111.75	1.4814	1740.3	111.27
303.15 K, x1 = 0.125	1107.68	1.4735	1716.3	90.23
303.15 K, x1 = 0.167	1108.86	1.4795	1728.4	105.11
